One compound from US20230055500A1, “COMPOSITION FOR PREVENTING OR TREATING ISCHEMIA REPERFUSION INJURY COMPRISING NADPH OXIDASE 1 INHIBITOR AS ACTIVE INGREDIENT” (KYUNGPOOK NATIONAL UNIVERSITY INDUSTRY-ACADEMIC COOPERATION …, priority 2020, published 2023) can be followed below.

Experiment [1] has as its system renal ischemia-reperfusion injury (IRI). In words: Renal ischemia-reperfusion injury mouse model: renal function tests and histology. It is filed as in vivo, C57BL/6 mice. As to conditions: for tissue damage due to ischemia-reperfusion (IRI-mediated damage): mouse model of renal ischemia reperfusion, overall statement. As for the experimental part:
(§1) C57BL/6 mice were intraperitoneally injected with 60 mg/kg of ML171, a selective NOX inhibitor or excipient at a time, renal ischemia-reperfusion injury (IRI) was induced by clamping bilateral renal vessels for 30 min. MDCK cells were incubated with H2O2 (1.4 mM) for 1 h to induce oxidative stress and treated with ML171 (1 and 2.5 μM). Renal damage was estimated using renal function tests and histology. NOX expression, oxidative stress markers, apoptosis assays and MAPK pathways were also evaluated in renal tissue and MDCK cells.

The next experiment has as its system NOX. In words: NOX mRNA expression in mouse kidney (IRI model). As to conditions: C57BL/6 mice, renal IRI, 60 mg/kg intraperitoneal; FIG. 2a, 2b. It is filed as in vivo. Here is the method:
as §1

For experiment [2], the system named is reactive oxygen species (ROS). In words: Reactive oxygen species measurement in the kidney (IRI model). Particulars: C57BL/6 mice, renal IRI, 60 mg/kg intraperitoneal; FIG. 2d, 2e. In kind it is in vivo. As for the experimental part:
as §1

The test system of the next experiment is apoptosis. In words: Apoptosis assays in the kidney (Caspase-3 activity, TUNEL, BCL-2/BAX; IRI model). It is filed as in vivo. As to conditions: C57BL/6 mice, renal IRI, 60 mg/kg intraperitoneal. Here is the method:
as §1

Experiment [3] concerns ERK. In words: MAPK pathway western blot in kidney tissue (IRI model). In kind it is in vivo. As to conditions: C57BL/6 mice, renal IRI, 60 mg/kg intraperitoneal, FIG. 5a, 5b. Here is the method: as §1
Experiment [4] has as its system MDCK cells. In words: NOX-related gene and oxidative stress marker expression in H2O2-treated MDCK cells. Particulars: H2O2 1.4 mM 1 h, ML171 1 and 2.5 μM. It is filed as cell-based. Here is the method:
as §1

In experiment [5] the test system is MDCK cells. In words: ROS production in H2O2-treated MDCK cells. Particulars: H2O2 1.4 mM 1 h, ML171 1 and 2.5 μM, FIG. 6f. In kind it is cell-based. As for the experimental part:
as §1

In experiment [6] the test system is MDCK cells. In words: Apoptosis assays in H2O2-treated MDCK cells (Caspase-3 activity, BCL-2/BAX, TUNEL). It is filed as cell-based. As to conditions: H2O2 1.4 mM 1 h, ML171 1 and 2.5 μM. As for the experimental part: as §1
Experiment [7] concerns ERK. In words: MAPK pathway (ERK phosphorylation) in H2O2-treated MDCK cells. It is filed as cell-based. As to conditions: H2O2 1.4 mM 1 h, ML171 1 and 2.5 μM, FIG. 8a, 8b. Here is the method:
as §1

Entries after “also recorded” stand apart in the source; their conditions may differ.

On to `CC(=O)c1ccc2c(c1)Nc1ccccc1S2` [ML171], for which the “level of kidney damage in the blood (renal function test)” value in experiment [1] (C57BL/6 mice, renal IRI (bilateral clamping 30 min), 60 mg/kg intraperitoneal, FIG. 1a, 1b) is listed as “a significant decrease”. The “damage to renal tubular epithelial cells, PAS staining” value in experiment [1] (C57BL/6 mice, renal IRI, 60 mg/kg intraperitoneal, FIG. 1c) was “reduced damage to renal tubular epithelial cells”. In addition, the “renal fibrosis, Trichrome stain” value in experiment [1] (C57BL/6 mice, renal IRI, 60 mg/kg intraperitoneal, FIG. 4a, 4b) is on record as “fibrosis was significantly reduced”. The “tissue damage due to ischemia-reperfusion (IRI-mediated damage)” value in [1] is given as “significantly attenuated IRI-mediated damage”; in experiment [1] (listed as compound of Formula 1) it was “exhibits an effect of alleviating tissue damage due to ischemia-reperfusion”. Moreover, the “NOX mRNA expression level in mouse kidney” value in the experiment with NOX is “significantly reduced”. Further, in [2], the “reactive oxygen species (ROS) in the kidney” value is reported as “effectively blocked ROS”. Moreover, the “Caspase-3 activity in the kidney” value in the experiment on apoptosis (FIG. 3a, 60 mg/kg) is “significant apoptosis alleviation effect; also recorded: reversed a decrease in Bcl-2 and an increase in Caspase-3 activity”. In addition, in the experiment on apoptosis (FIG. 3b), the “apoptosis, TUNEL assay histological staining of kidney” value is reported as “alleviated apoptosis”. For the same compound, the “protein expression levels of apoptosis markers BCL-2 and BAX in the kidneys” value in the experiment on apoptosis (FIG. 3c, 60 mg/kg) was “effectively inhibited apoptosis; also recorded: reversed a decrease in Bcl-2”. Besides, in the experiment on ERK [3], the “phosphorylation of ERK in kidney tissue (western blot)” value was “effectively reduced it; also recorded: affect ERK signaling”. The “changes in oxidative stress-related enzymes, SOD and GXP production” value with MDCK cells [4] is recorded as “alleviated by ML171 treatment”. Moreover, the “expression of NOX-related genes / oxidative stress markers (NOX1, NOX2, p40)” value in the experiment with MDCK cells [4] (FIG. 6a-6e) is “effectively decreased; also recorded: reduced the expression of NOX1, NOX2 and p40”. Moreover, in the experiment with MDCK cells [5], the “ROS production in cells” value was “significantly reduced ROS”. Besides, the Caspase-3 activity result in the experiment with MDCK cells [6] (FIG. 7a) was “a decrease in Caspase-3 activity”. Further, in the experiment on MDCK cells [6] (FIG. 7b), the “protein expression levels of apoptosis markers BCL-2 and BAX” value is on record as “apoptosis was significantly inhibited; also recorded: significant increase in Bcl-2 levels”. The “apoptosis pattern, intracellular TUNEL assay staining” value in the experiment on MDCK cells [6] (FIG. 7c) is on record as “effectively blocked it”. The “ERK phosphorylation in MDCK cells” value in the experiment on ERK [7] was “significantly reduced and regulated this; also recorded: affect ERK signaling”.
